# Assay results: patent US20240072809A1, “ASGPR-BINDING COMPOUNDS FOR THE DEGRADATION OF EXTRACELLULAR PROTEINS” (Avilar Therapeutics, Inc., priority 2020, published 2024)
# Biological target: ASGPR (Homo sapiens (Human), UniProt P07306)
# Assay: Affinity to ASGPR measured by surface plasmon resonance (SPR)
# Type: binding
# Settings: ASGPR ligands with linker, Table 5; read-out: ASGPR_SPR Binding KD
# Chain of ASGPR (P07306 whole entry): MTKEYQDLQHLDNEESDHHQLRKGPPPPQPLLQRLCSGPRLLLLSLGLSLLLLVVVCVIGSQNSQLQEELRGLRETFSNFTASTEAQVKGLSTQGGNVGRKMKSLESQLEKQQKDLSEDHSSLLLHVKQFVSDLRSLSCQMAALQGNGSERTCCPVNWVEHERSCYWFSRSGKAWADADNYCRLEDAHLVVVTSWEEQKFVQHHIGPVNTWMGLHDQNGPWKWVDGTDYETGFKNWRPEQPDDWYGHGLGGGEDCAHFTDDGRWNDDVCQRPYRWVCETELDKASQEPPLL
row,Kd [µM],Compound
1,< 100,"NC(COCCC(=O)NCCOCCOCCOCCOC[C@H]1OC[C@H](Nc2nccc(C(F)(F)F)n2)[C@@H](O)[C@H]1O)COCCC(=O)NCCOCCOCCOCCOC[C@H]1OC[C@H](Nc2nccc(C(F)(F)F)n2)[C@@H](O)[C@H]1O [Compound A422, 3,3′-((2-aminopropane-1,3-diyl)bis(oxy))bis(N-(1-((2R,3R,4R,5S)-3,4-dihydroxy-5-((4-(trifluoromethyl)pyrimidin-2-yl)amino)tetrahydro-2H-pyran-2-yl)-2,5,8,11-tetraoxatridecan-13-yl)propanamide)]"

# Same assay, conditions: ASGPR ligands, Table 2; Biacore 8K, 25° C., steady state fit; read-out: SPR Binding External Calculation: KD
row,Kd [µM],Compound
1,100 to 500,O=c1nc(N[C@H]2CO[C@H](CO)[C@H](O)[C@@H]2O)[nH]c(=O)[nH]1 [Compound A283]
2,< 100,"CC(=O)N[C@@H]1CO[C@H](CO)[C@H](O)[C@@H]1O [Compound A127, N-((3R,4R,5R,6R)-4,5-dihydroxy-6-(hydroxymethyl)tetrahydro-2H-pyran-3-yl)acetamide]"
3,< 100,OC[C@H]1OC[C@H](Nc2ncc(Cl)cc2F)[C@@H](O)[C@H]1O [Compound A100]
4,> 1000,"N[C@@H]1CO[C@H](CO)[C@H](O)[C@@H]1O [Compound A128, (2R,3R,4R,5R)-5-amino-2-(hydroxymethyl)tetrahydro-2H-pyran-3,4-diol]"

# Continued, molecule first:
row,Compound,Kd [µM]
1,"C=CC(=O)N[C@H]1[C@H](OC)O[C@H](CO)[C@H](O)[C@@H]1O [Compound A118, N-((2R,3R,4R,5R,6R)-4,5-dihydroxy-6-(hydroxymethyl)-2-methoxytetrahydro-2H-pyran-3-yl)acrylamide]",< 100
2,"CO[C@@H]1O[C@H](CO)[C@H](O)[C@H](O)[C@@H]1OC [Compound A217, (2R,3R,4S,5S,6R)-2-(hydroxymethyl)-5,6-dimethoxytetrahydro-2H-pyran-3,4-diol]",> 1000
3,"CO[C@@H]1O[C@H](CO)[C@H](O)[C@H](O)[C@H]1Nc1cccc(F)n1 [Compound A107, (2R,3R,4R,5R,6R)-5-((6-fluoropyridin-2-yl)amino)-2-(hydroxymethyl)-6-methoxytetrahydro-2H-pyran-3,4-diol]",> 1000
4,CO[C@@H]1O[C@H](CO)[C@H](O)[C@H](O)[C@H]1Nc1nc(Cl)cs1 [Compound A108],< 100
5,"OC[C@H]1OC[C@@H](COc2ccccc2)[C@@H](O)[C@H]1O [Compound A193, (2R,3R,4R,5S)-2-(hydroxymethyl)-5-(phenoxymethyl)tetrahydro-2H-pyran-3,4-diol]",100 to 500
6,"CO[C@@H]1O[C@H](CO)[C@H](O)[C@H](O)[C@H]1Nc1nc(Cl)ns1 [Compound A106, (2R,3R,4R,5R,6R)-5-((3-chloro-1,2,4-thiadiazol-5-yl)amino)-2-(hydroxymethyl)-6-methoxytetrahydro-2H-pyran-3,4-diol]",< 100

# Same assay, conditions: ASGPR ligands, Table 4; class symbols; read-out: ASGPR_PR Binding KD
row,Kd [µM],Compound
1,100 to 500,"O=C(N[C@@H]1CO[C@H](CO)[C@H](O)[C@@H]1O)c1ccccc1 [Compound A136, N-((3R,4R,5R,6R)-4,5-dihydroxy-6-(hydroxymethyl)tetrahydro-2H-pyran-3-yl)benzamide]"
2,< 100,COc1nc(C#N)cc(N[C@H]2CO[C@H](CO)[C@H](O)[C@@H]2O)n1 [Compound A326]
3,< 100,"CN1CCN(c2nsc(N[C@H]3CO[C@H](CO)[C@H](O)[C@@H]3O)n2)CC1 [Compound A338, (2R,3R,4R,5S)-2-(hydroxymethyl)-5-((3-(4-methylpiperazin-1-yl)-1,2,4-thiadiazol-5-yl)amino)tetrahydro-2H-pyran-3,4-diol]"
4,< 100,"OC[C@H]1OC[C@H](Nc2nc(-c3cccnc3)ns2)[C@@H](O)[C@H]1O [Compound A358, (2R,3R,4R,5S)-2-(hydroxymethyl)-5-((3-(pyridin-3-yl)-1,2,4-thiadiazol-5-yl)amino)tetrahydro-2H-pyran-3,4-diol]"
5,< 100,"COc1cc(N[C@H]2CO[C@H](CO)[C@H](O)[C@@H]2O)nc(C(F)(F)F)n1 [Compound A359, (2R,3R,4R,5S)-2-(hydroxymethyl)-5-((6-methoxy-2-(trifluoromethyl)pyrimidin-4-yl)amino)tetrahydro-2H-pyran-3,4-diol]"
6,100 to 500,"CS(=O)(=O)N[C@@H]1CO[C@H](CO)[C@H](O)[C@@H]1O [Compound A131, N-((3R,4R,5R,6R)-4,5-dihydroxy-6-(hydroxymethyl)tetrahydro-2H-pyran-3-yl)methanesulfonamide]"
7,< 100,OC[C@H]1OC[C@H](Nc2ncccn2)[C@@H](O)[C@H]1O [Compound A318]
8,< 100,"N#Cc1nc(N[C@H]2CO[C@H](CO)[C@H](O)[C@@H]2O)c2cccn2n1 [Compound A373, 4-(((3S,4R,5R,6R)-4,5-dihydroxy-6-(hydroxymethyl)tetrahydro-2H-pyran-3-yl)amino)pyrrolo[2,1-f][1,2,4]triazine-2-carbonitrile]"
9,< 100,COc1nc(Cl)cc(N[C@H]2CO[C@H](CO)[C@H](O)[C@@H]2O)n1 [Compound A327]
10,< 100,OC[C@H]1OC[C@H](Nc2nc(C(F)(F)F)ns2)[C@@H](O)[C@H]1O [Compound A300]
11,< 100,OC[C@H]1OC[C@H](Nc2cncc(C(F)(F)F)n2)[C@@H](O)[C@H]1O [Compound A315]
12,< 100,OC[C@H]1OC[C@H](Nc2ccnc(Cl)n2)[C@@H](O)[C@H]1O [Compound A317]

# The next lines start with the molecule.
row,Compound,Kd [µM]
1,"CO[C@@H]1O[C@H](CO)[C@H](O)[C@H](O)[C@@H]1N1CCOCC1 [Compound A218, (2R,3R,4R,5S,6R)-2-(hydroxymethyl)-6-methoxy-5-morpholinotetrahydro-2H-pyran-3,4-diol]",> 1000
2,"COc1cc(C#N)nc(N[C@H]2[C@H]3OC[C@](CO)(O3)[C@H](O)[C@@H]2O)n1 [Compound A294, 2-(((1S,2R,3R,4R,5S)-2,3-dihydroxy-1-(hydroxymethyl)-6,8-dioxabicyclo[3.2.1]octan-4-yl)amino)-6-methoxypyrimidine-4-carbonitrile]",< 100
3,"O=c1ccn([C@H]2CO[C@H](CO)[C@H](O)[C@@H]2O)cc1 [Compound A345, 1-((3S,4R,5R,6R)-4,5-dihydroxy-6-(hydroxymethyl)tetrahydro-2H-pyran-3-yl)pyridin-4(1H)-one]",< 100
4,OC[C@@]12CO[C@@H](O1)[C@H](Nc1nccc(C(F)(F)F)n1)[C@@H](O)[C@H]2O [Compound A289],< 100
5,"CO[C@H]1O[C@H](CO)[C@H](O)[C@H](O)[C@H]1N [Compound A91, (2R,3R,4R,5R,6S)-5-amino-2-(hydroxymethyl)-6-methoxytetrahydro-2H-pyran-3,4-diol]",< 100
6,OC[C@@]12CO[C@@H](O1)[C@H](Nc1ncns1)[C@@H](O)[C@H]2O [Compound A290],< 100
7,"O=C1CCCN1[C@@H]1CO[C@H](CO)[C@H](O)[C@@H]1O [Compound A180, 1-((3R,4R,5R,6R)-4,5-dihydroxy-6-(hydroxymethyl)tetrahydro-2H-pyran-3-yl)pyrrolidin-2-one]",< 100
8,OC[C@@]12CO[C@@H](O1)[C@H](Nc1nc(Cl)nn3cccc13)[C@@H](O)[C@H]2O [Compound A291],< 100
9,"OC[C@H]1OC[C@@H](N2CCOCC2)[C@@H](O)[C@H]1O [Compound A222, (2R,3R,4R,5R)-2-(hydroxymethyl)-5-morpholinotetrahydro-2H-pyran-3,4-diol]",100 to 500
10,OC[C@@]12CO[C@@H](O1)[C@H](Nc1nc(Br)ns1)[C@@H](O)[C@H]2O [Compound A288],< 100
11,CO[C@H]1O[C@H](CO)[C@H](O)[C@H](O)[C@H]1Nc1nccc(C(F)(F)F)n1 [Compound A377],< 100
12,"COc1cc(Cl)nc(N[C@H]2[C@H]3OC[C@](CO)(O3)[C@H](O)[C@@H]2O)n1 [Compound A292, (1S,2R,3R,4R,5S)-4-((4-chloro-6-methoxypyrimidin-2-yl)amino)-1-(hydroxymethyl)-6,8-dioxabicyclo[3.2.1]octane-2,3-diol]",< 100

# Same assay, conditions: ASGPR ligands, Table 4; numeric lower bounds; read-out: ASGPR_PR Binding KD
row,Kd [µM],Compound
1,> 20,"CSc1cc(N[C@H]2CO[C@H](CO)[C@H](O)[C@@H]2O)nc(C(N)=O)n1 [Compound A352, 4-(((3S,4R,5R,6R)-4,5-dihydroxy-6-(hydroxymethyl)tetrahydro-2H-pyran-3-yl)amino)-6-(methylthio)pyrimidine-2-carboxamide]"
2,> 200,"Cn1cc([C@@H]2CO[C@H](CO)[C@H](O)[C@@H]2O)cn1 [Compound A394, (2R,3R,4R,5R)-2-(hydroxymethyl)-5-(1-methyl-1H-pyrazol-4-yl)tetrahydro-2H-pyran-3,4-diol]"
3,> 200,"COC(=O)[C@@H]1CO[C@H](CO)[C@H](O)[C@@H]1O [Compound A401, methyl (3R,4R,5R,6R)-4,5-dihydroxy-6-(hydroxymethyl)tetrahydro-2H-pyran-3-carboxylate]"
4,> 20,"CCOc1cc(C#N)nc(N[C@H]2CO[C@H](CO)[C@H](O)[C@@H]2O)n1 [Compound A368, 2-(((3S,4R,5R,6R)-4,5-dihydroxy-6-(hydroxymethyl)tetrahydro-2H-pyran-3-yl)amino)-6-ethoxypyrimidine-4-carbonitrile]"
5,> 20,OC[C@H]1OC[C@@H](Nc2ccncn2)[C@@H](O)[C@H]1O [Compound A149]
6,> 20,OC[C@H]1OC[C@H](Nc2cnc(C(F)(F)F)cn2)[C@@H](O)[C@H]1O [Compound A314]

# More lines, now with the values behind:
row,Compound,Kd [µM]
1,CO[C@@H]1O[C@H](CO)[C@H](O)[C@H](O)[C@H]1Nc1nc(C(=O)O)cs1 [Compound A385],> 200
2,"CN1CCN(C[C@@H]2CO[C@H](CO)[C@H](O)[C@@H]2O)CC1 [Compound A390, (2R,3R,4R,5R)-2-(hydroxymethyl)-5-((4-methylpiperazin-1-yl)methyl) tetrahydro-2H-pyran-3,4-diol]",> 200
3,OC[C@H]1OC[C@H](Nc2ncc(-c3ccccc3)cn2)[C@@H](O)[C@H]1O [Compound A311],> 20
4,"OC[C@H]1OC[C@@H](c2cncnc2)[C@@H](O)[C@H]1O [Compound A395, (2R,3R,4R,5R)-2-(hydroxymethyl)-5-(pyrimidin-5-yl)tetrahydro-2H-pyran-3,4-diol]",> 200
